# Data published in patent publication US20100172836A1, “SYNTHESIS OF 18F-RADIOLABELED STYRYLPYRIDINES FROM TOSYLATE PRECURSORS AND STABLE PHARMACEUTICAL COMPOSITIONS THEREOF” (AVID RADIOPHARMACEUTICALS, INC., priority 2008, published 2010).
# Legend:
# Format in all cases: physicochemical
# [1] = Extended stability of ^18F-AV-45 Injection formulated with sodium ascorbate at 0.5% (% RCP)
# Method: (§1) The ^18F-AV-45 radiopharmaceutical compositions of embodiments of the invention are remarkably stable to radiolysis or chemical degradation. Sodium ascorbate is used to minimize radiolysis during the purification of ^18F-AV-45 and in the final drug product solution to increase stability and shelf life. Ethanol at 1-10% (v/v) in aqueous solution aids in the solubilization of ^18F-AV-45. […] The compositions were analyzed at end-of-synthesis (EOS) using reverse HPLC, equipped with both an ultra violet (UV) detector and radiochemical detector. The radiochemical purity of ^18F-AV-45 was monitored by HPLC with radiometric detection and the purity of ^19F-AV-45 was monitored by HPLC UV detection in the drug product by Area Percent Normalization.
# As noted, the radiochemical purity of the ^18F compound is maintained for up to approximately 20 hours after production.
# [2] = Stability of ^18F-AV-45 drug product in vials, upright and inverted, at ambient, 40° C. and 50° C. over 12 hours; conditions: three lots
# Method: The stability of the drug product was evaluated on three separate manufacturing lots of ^18F-AV-45. Vials were stored upright and inverted at ambient and 40° C. temperatures, and upright at 50° C. Drug product was sampled at the specified intervals over a 12 hour testing period and evaluated for radiochemical purity and strength.
# [3] = Radiochemical purity of ^18F-AV-45 Injection with and without sodium ascorbate (HPLC with radiometric detection)
# Method: as §1, with “Normalization. At EOS, the radiochemical purity of the ^18F-AV-45 composition prepared without sodium ascorbate was 84% and decomposed further such that at 2 hours the purity was 80%. […] At EOS, the purity was 96% with negligible decomposition at 2 hours post EOS (purity of 95%).” for “Normalization.”
# [4] = UV purity of ^19F-AV-45 in ^18F-AV-45 Injection (HPLC UV detection at 350 nm, area percent)
# Method: as §1
# [5] = Solubility of AV-45 in the drug product composition (visual inspection, HPLC after centrifugation)
# Method: The ^18F-AV-45 radiopharmaceutical formulation/composition was evaluated for the solubility of the non-radioactive ^19F-AV-45, which is also formed in quantities of 1-5 μg/mL during the radiosynthesis of ^18F-AV-45 due to the presence of small quantities of ^19F-fluoride from tubing, valves and other sources in the radiosynthesis system. In the absence of ethanol in the composition, particulate matter may be observed due to the low solubility of ^19F-AV-45. The addition of 10% ethanol to the radiopharmaceutical composition was, therefore, evaluated to determine if the solubility of ^19F-AV-45 was sufficient to avoid the potential of precipitate formation. […] A visible precipitate was noticeable in solutions with concentrations ≧22 μg/mL. Samples prepared at concentrations ≦20 μg/mL were evaluated by HPLC analysis following centrifugation. Samples with ≦20 μg/mL were also tested after storage for one week at ambient temperature.
# [6] = lot AV4520080304, manufactured without sodium ascorbate (444 MBq/mL), EOS
# [7] = lot AV4520080603, manufactured with sodium ascorbate (1036 MBq/mL), EOS
Compound,time after production for which radiochemical purity is maintained ([1]; approximately 10% (v/v) ethanol in normal saline containing 0.5% (w/v) sodium ascorbate),"RCP (stability maintained) ([1]; composition comprising ethyl alcohol and sodium ascorbate, up to 20 hours post-production)","RCP over 12 hours ([2]; 10% (v/v) ethanol in normal saline, 0.5% (w/v) sodium ascorbate, vials upright and inverted at ambient and 40° C., upright at 50° C.)","drift of the drug product strength ([2]; over 12 hours, all temperatures tested (ambient, 40° C., 50° C.))","% ^18F AV-45 Purity (radiochemical) ([3]; lot AV4520080304, manufactured without sodium ascorbate (444 MBq/mL), 2-hour post EOS)","% ^18F AV-45 Purity (radiochemical) ([3]; lot AV4520080304, manufactured without sodium ascorbate (444 MBq/mL), 2-hour post EOS, listed as 18F AV-45)","% ^18F AV-45 Purity (radiochemical) [3, 6]","% ^18F AV-45 Purity (radiochemical) ([3]; lot AV4520080304, manufactured without sodium ascorbate (444 MBq/mL), EOS, listed as 18F AV-45)","% ^18F AV-45 Purity (radiochemical) ([3]; lot AV4520080603, manufactured with sodium ascorbate (1036 MBq/mL), 2-hour post EOS)","% ^18F AV-45 Purity (radiochemical) ([3]; lot AV4520080603, manufactured with sodium ascorbate (1036 MBq/mL), 2-hour post EOS, listed as 18F AV-45)","% ^18F AV-45 Purity (radiochemical) [3, 7]","% ^18F AV-45 Purity (radiochemical) ([3]; lot AV4520080603, manufactured with sodium ascorbate (1036 MBq/mL), EOS, listed as 18F AV-45)","UV purity by area percent at 350 nm ([4]; lot AV4520080304, manufactured without sodium ascorbate (444 MBq/mL), 2-h post EOS)","UV purity by area percent at 350 nm [4, 6]","UV purity by area percent at 350 nm ([4]; lot AV4520080603, manufactured with sodium ascorbate (1036 MBq/mL), 2-h post EOS)","UV purity by area percent at 350 nm [4, 7]","solubility limit ([5]; 10% (v/v) EtOH and 0.5% (w/v) sodium ascorbate in 0.9% aqueous sodium chloride, ambient temperature)","concentrations at which a visible precipitate was noticeable ([5]; drug product composition (10% EtOH, 0.5% sodium ascorbate, 0.9% NaCl))","change in concentration after one week of storage ([5]; samples ≦20 μg/mL, ambient temperature, HPLC)"
"CNc1ccc(/C=C/c2ccc(OCCOCCOCC[18F])nc2)cc1 [^18F-AV-45, (E)-4-(2-(6-(2-(2-(2-[^18F]fluoroethoxy)ethoxy)ethoxy)pyridin-3-yl)vinyl)-N-methylbenzenamine]",approximately 20 hours,greater than 90%,constant,< 5%,80%,80%,84%,84%,95%,95%,96%,96%,,,,,,,
CNc1ccc(/C=C/c2ccc(OCCOCCOCCF)nc2)cc1 [^19F-AV-45],,,,,,,,,,,,,76%,83%,100%,100%,17 µg/mL,≥ 22000 ng/mL,no change in concentration
